From patent US8916702B2 (priority 2012, dated 2014)
pEC50: −log10 of the molar value.

Tested on: HCV pseudoparticles (genotype 1a HCV E1 and E2 envelope, H77C isolate)
Assay: microbe, parasite or virus in culture
Format: cell-based
Conditions: Hepatitis C virus, Huh-7, 48 h, HCV pseudoparticle infection of Huh7 cells, luciferase 2 days after infection; average of duplicates

Structure (SMILES)	pEC50
CNC(=O)C(=O)NCC(NC(=O)c1ccc(Nc2nc(NC3(c4ccc(Cl)cc4)CC3)nc(OCC(F)(F)F)n2)cc1)C(=O)O (stereo in doubt) [Compound 1006, (S)-2-(4-(4-(1-(4-chlorophenyl)cyclopropylamino)-6-(2,2,2-trifluoroethoxy)-1,3,5-triazin-2-ylamino)benzamido)-3-(2-(methylamino)-2-oxoacetamido)propanoic acid]	9.16
O=C(NCC[C@H](NC(=O)c1ccc(Nc2nc(NC3(c4ccc(Cl)cc4)CC3)nc(OCC(F)(F)F)n2)cc1)C(=O)O)C(=O)NCC1(C(=O)O)CC1 [Compound 1447]	7.01
COc1cccc(NC(=O)C(=O)NCC[C@H](NC(=O)c2ccc(Nc3nc(NC4(c5ccc(Cl)cc5)CC4)nc(OCC(F)(F)F)n3)cc2)C(=O)O)c1 [Compound 1270]	9.89

Same assay, conditions: Hepatitis C virus, Huh-7, 48 h, HCV pseudoparticles (genotype 1a, H77C) in Huh7 cells; average of duplicate; luciferase 2 days after infection

Structure (SMILES)	pEC50
O=C(NCC[C@H](NC(=O)c1ccc(Nc2nc(NC3(c4ccc(Cl)cc4)CC3)nc(OCC(F)(F)F)n2)cc1)C(=O)O)C(=O)Nc1ccc(-c2ncco2)cc1 [Compound 3547]	8.68
COC(=O)[C@H](CNC(=O)C(=O)Nc1ccc(N2CCN(C(C)=O)CC2)cc1)NC(=O)c1ccc(Nc2nc(NC3(c4ccc(Cl)cc4)CC3)nc(OCC(F)(F)F)n2)cc1 [Compound 3186]	9.15
CC(O)N1CCN(c2ccc(NC(=O)C(=O)NC[C@H](NC(=O)c3ccc(Nc4nc(NC5(c6ccc(Cl)cc6)CC5)nc(OCC(F)(F)F)n4)cc3)C(=O)O)cc2)CC1 (stereo partly shown) [Compound 3271]	8.86

Same assay, conditions: Hepatitis C virus, Huh-7, 48 h, read-out: Activity (EC50 class), HCV pseudoparticle infection of Huh7 cells, luciferase 2 days after infection; EC50 expressed as class A/B

Structure (SMILES)	pEC50
O=C(NCC1CCCOC1)C(=O)NC[C@H](NC(=O)c1ccc(Nc2nc(NC3(c4ccc(Cl)cc4)CC3)nc(OCC(F)(F)F)n2)cc1)C(=O)O (stereo partly shown) [Compound 1470]	8.00 to 11.00
CC(C)(C)OC(=O)NC1CCC(NC(=O)C(=O)NC[C@H](NC(=O)c2ccc(Nc3nc(NC4(c5ccc(Cl)cc5)CC4)nc(OCC(F)(F)F)n3)cc2)C(=O)O)CC1 (stereo partly shown) [Compound 1085]	8.00 to 11.00
COC(=O)C(CNC(=O)C(=O)NC1CCCC(NC(=O)OC(C)(C)C)C1)NC(=O)c1ccc(Nc2nc(NC3(c4ccc(Cl)cc4)CC3)nc(OCC(F)(F)F)n2)cc1 (stereo not shown) [Compound 1053]	8.00 to 11.00
COC(=O)[C@H](CCNC(=O)C(=O)NC1CCC(O)CC1)NC(=O)c1ccc(Nc2nc(NC3(c4ccc(Cl)cc4)CC3)nc(OCC(F)(F)F)n2)cc1 (stereo partly shown) [Compound 1073]	8.00 to 11.00
CNC(=O)C(=O)NCC(NC(=O)c1ccc(Nc2nc(NC3(c4ccc(Cl)cc4)CC3)nc(OCC(F)(F)F)n2)cc1)C(=O)O (stereo in doubt) [Compound 1006, (S)-2-(4-(4-(1-(4-chlorophenyl)cyclopropylamino)-6-(2,2,2-trifluoroethoxy)-1,3,5-triazin-2-ylamino)benzamido)-3-(2-(methylamino)-2-oxoacetamido)propanoic acid]	8.00 to 11.00
CC1(C)[C@H]2CCC(CNC(=O)C(=O)NC[C@H](NC(=O)c3ccc(Nc4nc(NC5(c6ccc(Cl)cc6)CC5)nc(OCC(F)(F)F)n4)cc3)C(=O)O)[C@@H]1C2 (stereo partly shown) [Compound 1473]	8.00 to 11.00
COC(=O)[C@H](CCNC(=O)C(=O)NCc1ccc(OC)cc1)NC(=O)c1ccc(Nc2nc(NC3(c4ccc(Cl)cc4)CC3)nc(OCC(F)(F)F)n2)cc1 [Compound 1146]	8.00 to 11.00
COC(=O)C(CNC(=O)C(=O)NC1CCC(O)CC1)NC(=O)c1ccc(Nc2nc(NC3(c4ccc(Cl)cc4)CC3)nc(OCC(F)(F)F)n2)cc1 (stereo not shown) [Compound 1048]	8.00 to 11.00
CC(C)(CNC(=O)C(=O)Nc1ccc(CC(=O)O)cc1)CNC(=O)c1ccc(Nc2nc(NC3(c4ccc(Cl)cc4)CC3)nc(OCC(F)(F)F)n2)cc1 [Compound 1481]	8.00 to 11.00
COC(=O)[C@H](CNC(=O)C(=O)NCC1CC[C@H]2C[C@@H]1C2(C)C)NC(=O)c1ccc(Nc2nc(NC3(c4ccc(Cl)cc4)CC3)nc(OCC(F)(F)F)n2)cc1 (stereo partly shown) [Compound 1453]	8.00 to 11.00
O=C(NCC[C@H](NC(=O)c1ccc(Nc2nc(NC3(c4ccc(Cl)cc4)CC3)nc(OCC(F)(F)F)n2)cc1)C(=O)O)C(=O)NCC1(C(=O)O)CC1 [Compound 1447]	6.00 to 8.00
COc1cccc(NC(=O)C(=O)NCC[C@H](NC(=O)c2ccc(Nc3nc(NC4(c5ccc(Cl)cc5)CC4)nc(OCC(F)(F)F)n3)cc2)C(=O)O)c1 [Compound 1270]	8.00 to 11.00
O=C(NCC[C@H](NC(=O)c1ccc(Nc2nc(NC3(c4ccc(Cl)cc4)CC3)nc(OCC(F)(F)F)n2)cc1)C(=O)O)C(=O)NCC1CC1 [Compound 1206]	8.00 to 11.00
COCC(NC(=O)C(=O)NCC[C@H](NC(=O)c1ccc(Nc2nc(NC3(c4ccc(Cl)cc4)CC3)nc(OCC(F)(F)F)n2)cc1)C(=O)O)C1CC1 (stereo partly shown) [Compound 1441]	8.00 to 11.00

Same assay, conditions: Hepatitis C virus, Huh-7, 48 h, read-out: Activity (EC50 class), HCV pseudoparticles, Huh7 cells, luciferase 2 days after infection; average of duplicates

Structure (SMILES)	pEC50
Cc1ccc(NC(=O)C(=O)NCC(C)(C)CNC(=O)c2ccc(Nc3nc(NC4(c5ccc(Cl)cc5)CC4)nc(OCc4ccccc4)n3)cc2)cc1 [Compound 3843]	8.00 to 11.00
O=C(NC[C@H](NC(=O)c1ccc(Nc2nc(NC3(c4ccc(Cl)cc4)CC3)nc(OCC(F)(F)F)n2)cc1)C(=O)O)C(=O)Nc1ccc(N2CCOCC2)nc1 [Compound 3759]	8.00 to 11.00
CC(C)(CNC(=O)C(=O)Nc1ccc(CNC(N)=O)cc1)CNC(=O)c1ccc(Nc2nc(NC3(c4ccc(Cl)cc4)CC3)nc(OCC(F)(F)F)n2)cc1 [Compound 3671]	8.00 to 11.00
Cn1cnnc1-c1cccc(NC(=O)C(=O)NCC[C@H](NC(=O)c2ccc(Nc3nc(NC4(c5ccc(Cl)cc5)CC4)nc(OCC(F)(F)F)n3)cc2)C(=O)O)c1 [Compound 3643]	6.00 to 8.00
CC(C)(CNC(=O)C(=O)Nc1nc2cc(O)ccc2s1)CNC(=O)c1ccc(Nc2nc(NC3(c4ccc(Cl)cc4)CC3)nc(OCC(F)(F)F)n2)cc1 [Compound 3801]	8.00 to 11.00
O=C(NC[C@H](NC(=O)c1ccc(Nc2nc(NC3(c4ccc(Cl)cc4)CC3)nc(OCC(F)(F)F)n2)cc1)C(=O)O)C(=O)Nc1ccc(O)nc1 [Compound 3777]	8.00 to 11.00
COC(=O)[C@H](CNC(=O)C(=O)Nc1cccc(-n2ccnc2)c1)NC(=O)c1ccc(Nc2nc(NC3(c4ccc(Cl)cc4)CC3)nc(OCC(F)(F)F)n2)cc1 [Compound 3734]	8.00 to 11.00
Cc1nc(-c2cccc(NC(=O)C(=O)NCC[C@H](NC(=O)c3ccc(Nc4nc(NC5(c6ccc(Cl)cc6)CC5)nc(OCC(F)(F)F)n4)cc3)C(=O)O)c2)cs1 [Compound 3642]	8.00 to 11.00
O=C(NC[C@H](NC(=O)c1ccc(Nc2nc(NC3(c4ccc(Cl)cc4)CC3)nc(OCC(F)(F)F)n2)cc1)C(=O)O)C(=O)Nc1cccc(OC(F)F)c1 [Compound 3764]	8.00 to 11.00

Same assay, conditions: Hepatitis C virus, Huh-7, read-out: Activity (EC50 class), HCV pseudoparticles (genotype 1a, H77C) in Huh7 cells; EC50 expressed as class A/B

Structure (SMILES)	pEC50
O=C(NCC[C@H](NC(=O)c1ccc(Nc2nc(NC3(c4ccc(Cl)cc4)CC3)nc(OCC(F)(F)F)n2)cc1)C(=O)O)C(=O)Nc1ccc(-c2ncco2)cc1 [Compound 3547]	8.00 to 11.00
COC(=O)/C(CCNC(=O)C(=O)Nc1ccc(N)nc1)=N\C(=O)c1ccc(Nc2nc(NC3(c4ccc(Cl)cc4)CC3)nc(OCC(F)(F)F)n2)cc1 [Compound 3587]	8.00 to 11.00
COc1ccccc1-c1ccccc1NC(=O)C(=O)NCC(C)(C)CNC(=O)c1ccc(Nc2nc(NC3(c4ccc(Cl)cc4)CC3)nc(OCC(F)(F)F)n2)cc1 [Compound 3050]	8.00 to 11.00
O=C(NC/C(=N/C(=O)c1ccc(Nc2nc(NC3(c4ccc(Cl)cc4)CC3)nc(OCC(F)(F)F)n2)cc1)C(=O)O)C(=O)Nc1ccc(-n2cccn2)cc1 [Compound 3173]	8.00 to 11.00
O=C(NC/C(=N/C(=O)c1ccc(Nc2nc(NC3(c4ccc(Cl)cc4)CC3)nc(OCC(F)(F)F)n2)cc1)C(=O)O)C(=O)Nc1ccc(Cc2ccccc2)cc1 [Compound 3159]	8.00 to 11.00
COC(=O)[C@H](CNC(=O)C(=O)Nc1ccc(N2CCN(C(C)=O)CC2)cc1)NC(=O)c1ccc(Nc2nc(NC3(c4ccc(Cl)cc4)CC3)nc(OCC(F)(F)F)n2)cc1 [Compound 3186]	8.00 to 11.00
CN(CCCNC(=O)c1ccc(Nc2nc(NC3(c4ccc(Cl)cc4)CC3)nc(OCC(F)(F)F)n2)cc1)C(=O)C(N)=O [Compound 3447]	8.00 to 11.00
Cc1cc(C)n(-c2ccc(NC(=O)C(=O)NC/C(=N/C(=O)c3ccc(Nc4nc(NC5(c6ccc(Cl)cc6)CC5)nc(OCC(F)(F)F)n4)cc3)C(=O)O)cc2)n1 [Compound 3174]	8.00 to 11.00
Cc1cc(C)n(-c2ccccc2NC(=O)C(=O)NCC(C)(C)CNC(=O)c2ccc(Nc3nc(NC4(c5ccc(Cl)cc5)CC4)nc(OCC(F)(F)F)n3)cc2)n1 [Compound 3177]	8.00 to 11.00
CC(C)(CNC(=O)C(=O)NCc1ccc(C(=O)c2ccccc2)cc1)CNC(=O)c1ccc(Nc2nc(NC3(c4ccc(Cl)cc4)CC3)nc(OCC(F)(F)F)n2)cc1 [Compound 3404]	8.00 to 11.00
COC(=O)[C@@H](CCNC(=O)C(=O)Nc1cccc(OCc2ccccc2)c1)NC(=O)c1ccc(Nc2nc(NC3(c4ccc(Cl)cc4)CC3)nc(OCC(F)(F)F)n2)cc1 [Compound 3571]	8.00 to 11.00
CC(C)(CNC(=O)C(=O)Nc1ccc2ccccc2c1)CNC(=O)c1ccc(Nc2nc(NC3(c4ccc(Cl)cc4)CC3)nc(OCC(F)(F)F)n2)cc1 [Compound 3347]	8.00 to 11.00
CC(=O)N1CCN(c2ccc(NC(=O)C(=O)NCCC(NC(=O)c3ccc(Nc4nc(NC5(c6ccc(Cl)cc6)CC5)nc(OCC(F)(F)F)n4)cc3)C(=O)O)cc2)CC1 (stereo not shown) [Compound 3524]	8.00 to 11.00
CC(C)(CNC(=O)C(N)=O)CNC(=O)c1ccc(Nc2nc(NC3(c4ccc(Cl)cc4)CC3)nc(OCC(F)(F)F)n2)c(F)c1 [Compound 3386]	8.00 to 11.00
CC(C)(CNC(=O)C(=O)Nc1ccc(C(F)(F)F)cc1F)CNC(=O)c1ccc(Nc2nc(NC3(c4ccc(Cl)cc4)CC3)nc(OCC(F)(F)F)n2)cc1 [Compound 3409]	8.00 to 11.00
CC1CN(c2ccc(NC(=O)C(=O)NC/C(=N/C(=O)c3ccc(Nc4nc(NC5(c6ccc(Cl)cc6)CC5)nc(OCC(F)(F)F)n4)cc3)C(=O)O)cc2)CC(C)N1 (stereo not shown) [Compound 3160]	8.00 to 11.00
COC(=O)[C@H](CNC(=O)C(=O)Nc1ccc(Cc2ccncc2)cc1)NC(=O)c1ccc(Nc2nc(NC3(c4ccc(Cl)cc4)CC3)nc(OCC(F)(F)F)n2)cc1 [Compound 3094]	8.00 to 11.00
CN(CCCN(C)C(=O)c1ccc(Nc2nc(NC3(c4ccc(Cl)cc4)CC3)nc(OCC(F)(F)F)n2)cc1)C(=O)C(N)=O [Compound 3411]	8.00 to 11.00
Cc1cc(NC(=O)C(=O)NCCCNC(=O)c2ccc(Nc3nc(NC4(c5ccc(Cl)cc5)CC4)nc(OCC(F)(F)F)n3)cc2)no1 [Compound 3343]	8.00 to 11.00
CC(C)(CNC(=O)C(=O)Nc1ccc(C(F)(F)F)c(F)c1)CNC(=O)c1ccc(Nc2nc(NC3(c4ccc(Cl)cc4)CC3)nc(OCC(F)(F)F)n2)cc1 [Compound 3250]	8.00 to 11.00
O=C(NC[C@H](NC(=O)c1ccc(Nc2nc(NC3(c4ccc(Cl)cc4)CC3)nc(OCC(F)(F)F)n2)cc1)C(=O)O)C(=O)Nc1ccc(-c2ccncc2)cc1 [Compound 3266]	8.00 to 11.00
CC(O)N1CCN(c2ccc(NC(=O)C(=O)NC[C@H](NC(=O)c3ccc(Nc4nc(NC5(c6ccc(Cl)cc6)CC5)nc(OCC(F)(F)F)n4)cc3)C(=O)O)cc2)CC1 (stereo partly shown) [Compound 3271]	8.00 to 11.00
COC(=O)[C@H](CCNC(=O)C(=O)Nc1ccc(C(=O)N2CCOCC2)cc1)NC(=O)c1ccc(Nc2nc(NC3(c4ccc(Cl)cc4)CC3)nc(OCC(F)(F)F)n2)cc1 [Compound 3128]	8.00 to 11.00
